In article PMC11352961, “Peptide dendrimers transfecting CRISPR/Cas9 plasmid DNA: optimization and mechanism” (RSC Chemical Biology, 2024):
Bridge positions count the residues as written; N and C are the ends. Square brackets hold non-standard residues; d marks the D form. Side chains are listed from the residue outwards. Peptide text beside a SMILES is read from it. I, II: the chains in the order shown. * marks the point of attachment. Palmitoyl = CCCCCCCCCCCCCCCC(=O)*

Columns and labels:
HEK293 cells = test: Cell viability by PrestoBlue assay after transfection, HEK cells; assay type: cell-based; conditions: 4 h
[1] = cited from earlier work

CCCCCCCCCCCCCCCC(=O)NCCCC[C@@H](NC(=O)[C@@H](CCCCNC(=O)CCCCCCCCCCCCCCC)NC(=O)[C@@H](CCCCNC(=O)[C@@H](CC(C)C)NC(=O)[C@@H](CC(C)C)NC(=O)[C@@H](CCCCNC(=O)[C@@H](CC(C)C)NC(=O)[C@@H](CCCCN)NC(=O)[C@@H](CCCCNC(=O)[C@@H](CC(C)C)NC(=O)[C@H](N)CCCCN)NC(=O)[C@@H](CC(C)C)NC(=O)[C@H](N)CCCCN)NC(=O)[C@@H](CC(C)C)NC(=O)[C@@H](CCCCN)NC(=O)[C@@H](CCCCNC(=O)[C@@H](CC(C)C)NC(=O)[C@H](N)CCCCN)NC(=O)[C@@H](CC(C)C)NC(=O)[C@H](N)CCCCN)NC(=O)[C@@H](CC(C)C)NC(=O)[C@@H](CC(C)C)NC(=O)[C@@H](CCCCNC(=O)[C@@H](CC(C)C)NC(=O)[C@@H](CCCCN)NC(=O)[C@@H](CCCCNC(=O)[C@@H](CC(C)C)NC(=O)[C@H](N)CCCCN)NC(=O)[C@@H](CC(C)C)NC(=O)[C@H](N)CCCCN)NC(=O)[C@@H](CC(C)C)NC(=O)[C@@H](CCCCN)NC(=O)[C@@H](CCCCNC(=O)[C@@H](CC(C)C)NC(=O)[C@H](N)CCCCN)NC(=O)[C@@H](CC(C)C)NC(=O)[C@H](N)CCCCN)C(N)=O [DMH13, reference compound] (I: H-[dK][dL][dK]([dL-dK])[dK][dL][dK][dL][dL][dK][dK](Palmitoyl)[dK](Palmitoyl)-NH2 / II: H-[dK][dL][dK]([dL-dK])[dK][dL][dK][dL][dL] / III: H-[dK][dL][dK]([dL-dK])[dK][dL] / IV: H-[dK][dL][dK]([dL-dK])[dK][dL]; amide I:6-IV:C, I:9-II:C, II:6-III:C)
% viability HEK cells (HEK293 cells): 96 ± 6%
pKa of dendrimer N-termini [1]: ~6.5
